The values below are quoted from earlier work in patent publication US4568690A, “1-Methyl-5-p-methylbenzoylpyrrole-2-acetamidoacetanilides with antiinflammatory, analgesic, antipyretic and anti-platelet aggregant activity” (priority 1983, dated 1986).

Data set [1] has as its system carragenin-induced edema. The note with it: background statement, prior ester; cited from earlier work.
Data set [2] relates to healthy animals. Conditions: background statement, prior ester; cited from earlier work.

With `COc1ccccc1OC(=O)CNC(=O)Cc1ccc(C(=O)c2ccc(C)cc2)n1C` [Compound 4, 1-methyl-5-p-methylbenzoylpyrrole-2-acetamidoacetate of o-methoxyphenol], in data set [1], the “antinflammatory, analgesic, antipyretic, antisecretive and cough suppressing activity versus Tolmetin (in words)” value is “greater than that of Tolmetin”; the “duration of action versus Tolmetin (in words)” value is “longer lasting action”. In data set [2], the “toxicity versus Tolmetin (in words)” value is recorded as “lower toxicity”.
